Key:
MDA-MB-435 [1] = assay: Cytotoxicity against human MDA-MB-435 cells; format: functional, cell-based
MDA-MB-435 [2] = assay: Cytotoxicity against human MDA-MB-435 cells assessed as reduction in cell viability after 72 hrs by MTS assay; details: MDA-MB-435, 72 h
HCT-116 = assay: cells; details: Homo sapiens, HCT-116, 96 h
Description: Antiproliferative activity against human HCT116 cells after 96 hrs

MDA-MB-435 [3] = assay: Cytotoxicity against human MDA-MB-435 cells assessed as reduction in cell viability after 24 hrs by MTT assay; format: functional, cell-based; details: MDA-MB-435, 24 h
[4] = target: Methionine aminopeptidase 2 (Homo sapiens, UniProt P50579); assay: Inhibition of human MetAP2
MDA-MB-231 = assay: Cytotoxicity against human MDA-MB-231 cells; format: functional, cell-based
HT-1080 = assay: Cytotoxicity against human HT1080 cells
[5] = target: Methionine aminopeptidase 1 (Homo sapiens, UniProt P53582); assay: Inhibition of human MetAP1
A549 = assay: Antiproliferative activity against human A549 cells after 96 hrs; details: A549, 96 h

Methionine aminopeptidase 2, sequence (P50579 whole entry): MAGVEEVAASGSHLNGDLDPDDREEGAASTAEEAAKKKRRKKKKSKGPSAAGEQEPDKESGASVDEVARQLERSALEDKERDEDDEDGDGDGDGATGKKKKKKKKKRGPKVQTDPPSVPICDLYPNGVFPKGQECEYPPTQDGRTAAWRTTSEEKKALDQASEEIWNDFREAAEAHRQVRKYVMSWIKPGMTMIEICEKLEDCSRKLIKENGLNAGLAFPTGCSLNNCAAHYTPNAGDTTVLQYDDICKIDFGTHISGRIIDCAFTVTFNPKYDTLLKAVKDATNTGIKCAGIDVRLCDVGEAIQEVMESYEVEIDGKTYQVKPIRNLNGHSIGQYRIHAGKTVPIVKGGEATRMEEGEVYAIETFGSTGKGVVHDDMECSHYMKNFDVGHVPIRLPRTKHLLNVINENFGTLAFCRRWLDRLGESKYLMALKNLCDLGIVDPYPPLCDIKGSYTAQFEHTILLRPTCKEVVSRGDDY

SMILES | IC50 (MDA-MB-435 [1]) [nM] | IC50 (MDA-MB-435 [2]) [nM] | IC50 (HCT-116) [nM] | further results
CO[C@@H](C(=O)N[C@H]1CCCCNC1=O)[C@H](O)[C@@H](O)[C@H](O)/C=C/C1CCCC1 | 0.4 | – | – | –
CCCCCCCCCCCCCC(=O)O[C@H]1CC[C@H](NC(=O)[C@H](OC)[C@H](O)[C@@H](O)[C@H](O)/C=C/C(C)C)C(=O)N(C)C1 [BENGAMIDE B] | – | 2 | – | –
CO[C@@H](C(=O)N[C@H]1CCCCNC1=O)[C@H](O)[C@@H](O)[C@H](O)/C=C\C(C)C | 14 | – | – | –
CC(C)/C=C/[C@@H](O)[C@H](O)[C@@H](O)[C@@H](O)C(=O)N[C@H]1CCCCNC1=O | – | 12000 | – | –
CO[C@@H](C(=O)N[C@H]1CCCCN(CCOC(=O)C2CCCCC2)C1=O)[C@H](O)[C@@H](O)[C@H](O)/C=C/C(C)(C)C | 17 | – | – | –
CO[C@@H](C(=O)N[C@H]1CCCCNC1=O)[C@H](O)[C@@H](O)[C@H](O)/C=C/C(C)C [BENGAMIDE E] | 3.8 | 4 to 7 | 3.8 to 600 | –
CCCCCCCCCCCCCC(=O)OCCC[C@H](NC(=O)[C@H](OC)[C@H](O)[C@@H](O)[C@H](O)/C=C/C(C)(C)C)C(=O)NC | 190 | – | – | –
CO[C@@H](C(=O)N[C@@H](C)C(=O)NCCOC(=O)C1CCCCC1)[C@H](O)[C@@H](O)[C@H](O)/C=C/C(C)(C)C | – | – | – | IC50 (MDA-MB-435 [3]): 4 nM
CCCCCCCCCCCCCC(=O)O[C@H]1CC[C@H](NC(=O)[C@H](OC)[C@H](O)[C@@H](O)[C@H](O)/C=C/C(C)C)C(=O)NC1 [BENGAMIDE A] | – | 1 | 0.4 to 16 | –
COc1ccc(N2CCN(c3nc(-c4ccccn4)nc4ccccc34)CC2)cc1 | – | – | – | IC50 [4]: > 100000 nM
CO[C@H](C(=O)N[C@@H]1CCCCNC1=O)[C@@H](O)[C@H](O)[C@@H](O)/C=C/C(C)C | – | – | > 50000 | –
CO[C@H]1[C@@H](OC(=O)/C=C/C=C/C=C/C=C/C(=O)O)CC[C@]2(CO2)[C@@H]1[C@@]1(C)O[C@@H]1CC=C(C)C | – | – | – | IC50 (MDA-MB-231): 54 nM; IC50 [4]: 200 nM
CC(C)(C)OC(=O)Nc1cccnc1C(=O)Nc1nccs1 | – | – | – | IC50 [4]: > 300000 nM; IC50 (HT-1080): 300 nM
CO[C@H](C(=O)N[C@H]1CCCCNC1=O)[C@@H](O)[C@H](O)[C@@H](O)/C=C/C(C)C | 4 | – | – | –
CO[C@@H](C(=O)N[C@H]1CC[C@H](OC(=O)CCCCCCCCCCC(C)C)CN(C)C1=O)[C@H](O)[C@@H](O)[C@H](O)/C=C/C(C)C | – | – | – | IC50 [4]: > 50000 nM
CO[C@@H](C(=O)N[C@H]1CC[C@@H](OC(=O)C2CCCCC2)CNC1=O)[C@H](O)[C@@H](O)[C@H](O)/C(C)=C/C(C)(C)C | – | – | 140 | IC50 [5]: > 10000 nM
CO[C@@H](C(=O)N[C@H]1CC[C@H](O)CN(C)C1=O)[C@H](O)[C@@H](O)[C@H](O)/C=C/C(C)C [BENGAMIDE F] | – | 3 | – | –
CO[C@@H](C(=O)N[C@H]1CCc2ccccc2NC1=O)[C@H](O)[C@@H](O)[C@H](O)/C=C/C(C)(C)C | – | 3.8 | 44 | IC50 (A549): 9 nM
CNC(=O)[C@H](CC(C)C)NC(=O)[C@H](OC)[C@H](O)[C@@H](O)[C@H](O)/C=C/C(C)(C)C | 20000 | – | – | –
CO[C@@H](C(=O)N[C@H]1CC[C@@H](OC(=O)C2CCCCC2)CNC1=O)[C@H](O)[C@@H](O)[C@H](O)/C=C/C(C)(C)C | – | 40 | 23 to 40 | IC50 (A549): 13 nM

— ChEMBL document CHEMBL4052606, “The Bengamides: A Mini-Review of Natural Sources, Analogues, Biological Properties, Biosynthetic Origins, and Future Prospects” (J Nat Prod, 2017)
